Assay results published in US20110312894A1 (priority 2009, published 2011).
Read-outs that look alike come from different tables or passages of the source.

Key:
[1] = target: T1, heteromeric α7β2-nAChRs on MS/DB cholinergic neurons (Rattus norvegicus, UniProt P12390+Q05941); format: cell-based; settings: for form-dependent suppression of choline-induced responses: 1 nM of the peptide form
T1 construct: functional nAChRs naturally expressed on rat MS/DB cholinergic neurons; endogenous in cells; host or cells: acutely dissociated MS/DB neurons of 2-4 week-old Wistar rats
Procedure: (§1) Briefly, each postnatal 2-4 week-old Wistar rat or mouse (wild-type C57/B16 or nAChR β2 knockout mice on a C57/B16 background kindly provided by Dr. Marina Picciotto, Yale University) was anesthetized using isoflurane, and the brain was rapidly removed. Several 400-μm coronal slices, which contained the medial septum/diagonal band (MS/DB) or the ventral tegmental area (VTA), were cut using a vibratome (Vibratorne 1000 plus; Jed Pella Inc., Redding, Calif.) in cold (2-4° C.) artificial cerebrospinal fluid (ACSF) and continuously bubbled with carbogen (95% O2-5% CO2). The slices were then incubated in a pre-incubation chamber (Warner Ins., Holliston, Mass.) and allowed to recover for at least 1 h at room temperature ([…]) in oxygenated ACSF. Thereafter, the slices were treated with pronase (1 mg/6 mL) at 31° C. for 30 min and subsequently treated with the same concentration of thermolysin for another 30 min. The MS/DB or VTA region was micropunched out from the slices using a well-polished needle. […] In particular, perforated-patch recording was used to maintain the intracellular ATP concentration at a physiological level. To prepare for perforated-patch whole-cell recording, glass microelectrodes (GC-1.5; Narishige, East Meadow, N.Y.) were fashioned on a two-stage vertical pipette puller (P-830; Narishige, East Meadow, N.Y.), and the resistance of the electrode was 3 to 5 MΩ when filled with the internal solution. A tight seal (>2 GΩ) was formed between the electrode tip and the cell surface, which was followed by a transition from on-cell to whole-cell recording mode due to the partitioning of amphotericin B into the membrane underlying the patch. After whole-cell formation, an access resistance lower than 60 MΩ was acceptable during perforated-patch recordings in current-clamp mode, and an access resistance lower than 30 MΩ was acceptable during voltage-clamp recordings. The series resistance was not compensated in the experiments using dissociated neurons. Under current-clamp configuration, membrane potentials were measured using a patch-clamp amplifier (200B; Axon Instruments, Foster City, Calif.). […] All experiments were performed at room temperature (22±1° C.).

[2] = target: T2, homomeric α7-nAChRs on VTA DAergic neurons (Rattus norvegicus, UniProt Q05941); format: cell-based
T2 construct: native nAChR responses in rat MS/DB or VTA neurons; endogenous in cells; host or cells: acutely dissociated VTA dopaminergic neurons of Wistar rats
Procedure: as §1

[3] = target: T3, α7β2-nAChRs on MS/DB neurons from wild-type mice (Mus musculus, UniProt P49582+Q9ERK7); experiment: Whole-cell current recordings, MS/DB neurons from wild-type mice; format: cell-based; settings: 1 nM peptide
T3 construct: heteromeric α7β2-nAChRs exist in rodent basal forebrain cholinergic neurons; endogenous in cells; host or cells: acutely dissociated MS/DB neurons of wild-type C57/Bl6 mice
Procedure: (§3) Briefly, each postnatal 2-4 week-old Wistar rat or mouse (wild-type C57/B16 or nAChR β2 knockout mice on a C57/B16 background kindly provided by Dr. Marina Picciotto, Yale University) was anesthetized using isoflurane, and the brain was rapidly removed. Several 400-μm coronal slices, which contained the medial septum/diagonal band (MS/DB) or the ventral tegmental area (VTA), were cut using a vibratome (Vibratorne 1000 plus; Jed Pella Inc., Redding, Calif.) in cold (2-4° C.) artificial cerebrospinal fluid (ACSF) and continuously bubbled with carbogen (95% O2-5% CO2). The slices were then incubated in a pre-incubation chamber (Warner Ins., Holliston, Mass.) and allowed to recover for at least 1 h at room temperature (22±PC) in oxygenated ACSF. Thereafter, the slices were treated with pronase (1 mg/6 mL) at 31° C. for 30 min and subsequently treated with the same concentration of thermolysin for another 30 min. The MS/DB or VTA region was micropunched out from the slices using a well-polished needle. […] In particular, perforated-patch recording was used to maintain the intracellular ATP concentration at a physiological level. […] Under current-clamp configuration, membrane potentials were measured using a patch-clamp amplifier (200B; Axon Instruments, Foster City, Calif.). […]

[4] = target: T4, α7-containing-nAChRs on MS/DB neurons from nAChR β2 knockout mice (Mus musculus, UniProt P49582); format: cell-based
T4 construct: endogenous in cells; host or cells: acutely dissociated MS/DB neurons of nAChR β2 subunit knockout mice (C57/Bl6 background)
Procedure: as §3

GABAA receptors = experiment: GABA-induced whole-cell currents in rat MS/DB cholinergic neurons; format: cell-based; settings: 1 nM peptide; 0.1 mM GABA
Procedure: (§2) Briefly, each postnatal 2-4 week-old Wistar rat or mouse (wild-type C57/B16 or nAChR β2 knockout mice on a C57/B16 background kindly provided by Dr. Marina Picciotto, Yale University) was anesthetized using isoflurane, and the brain was rapidly removed. Several 400-μm coronal slices, which contained the medial septum/diagonal band (MS/DB) or the ventral tegmental area (VTA), were cut using a vibratome (Vibratorne 1000 plus; Jed Pella Inc., Redding, Calif.) in cold (2-4° C.) artificial cerebrospinal fluid (ACSF) and continuously bubbled with carbogen (95% O2-5% CO2). The slices were then incubated in a pre-incubation chamber (Warner Ins., Holliston, Mass.) and allowed to recover for at least 1 h at room temperature ([…]) in oxygenated ACSF. Thereafter, the slices were treated with pronase (1 mg/6 mL) at 31° C. for 30 min and subsequently treated with the same concentration of thermolysin for another 30 min. The MS/DB or VTA region was micropunched out from the slices using a well-polished needle. […] In particular, perforated-patch recording was used to maintain the intracellular ATP concentration at a physiological level. […] Under current-clamp configuration, membrane potentials were measured using a patch-clamp amplifier (200B; Axon Instruments, Foster City, Calif.). […]

[5] = tested on: ionotropic glutamate receptors; experiment: Glutamate-induced whole-cell currents in rat MS/DB cholinergic neurons; format: cell-based; settings: 1 nM peptide; 1 mM glutamate
Procedure: as §2

[6] = target: T5, heterologously expressed heteromeric α7β2-nAChRs (Rattus norvegicus, UniProt P12390+Q05941); format: cell-based; settings: oocytes; 10 mM choline; compared with homomeric α7-nAChR
T5 construct: expressed in transfected cells; host or cells: Xenopus laevis oocytes injected with cRNA (vector pGEMHE)
Procedure: The frogs were then allowed to recover from surgery before being returned to the incubation tank. The lobes were cut into small pieces and digested with 0.08 Wunsch U/mL liberase blendzyme 3 (Roche Applied Science, Indianapolis, Ind.) with constant stirring at room temperature for 1.5-2 h. The dispersed oocytes were thoroughly rinsed with incubation solution. Stage VI oocytes were selected and incubated at 16° C. before injection. Micropipettes used for injection were pulled from borosilicate glass (Drummond Scientific, Broomall, Pa.). cRNAs encoding α7 or β2 at proper dilution were injected into oocytes separately or in different ratios using a Nanoject microinjection system (Drummond Scientific, Broomall, Pa.) at a total volume of ˜20-60 nL.
The chamber was grounded through an agarose bridge. The oocytes were voltage-clamped at −70 mV to measure ACh (or choline)-induced currents using GeneClamp 500B (Axon Instruments, Foster City, Calif.).

MS/DB neurons = experiment: Current-clamp recording of spontaneous action potential firing in dissociated MS/DB neurons; format: cell-based, rat; settings: 1 μM
Procedure: as §3

T2 sequence (Q05941 23-502): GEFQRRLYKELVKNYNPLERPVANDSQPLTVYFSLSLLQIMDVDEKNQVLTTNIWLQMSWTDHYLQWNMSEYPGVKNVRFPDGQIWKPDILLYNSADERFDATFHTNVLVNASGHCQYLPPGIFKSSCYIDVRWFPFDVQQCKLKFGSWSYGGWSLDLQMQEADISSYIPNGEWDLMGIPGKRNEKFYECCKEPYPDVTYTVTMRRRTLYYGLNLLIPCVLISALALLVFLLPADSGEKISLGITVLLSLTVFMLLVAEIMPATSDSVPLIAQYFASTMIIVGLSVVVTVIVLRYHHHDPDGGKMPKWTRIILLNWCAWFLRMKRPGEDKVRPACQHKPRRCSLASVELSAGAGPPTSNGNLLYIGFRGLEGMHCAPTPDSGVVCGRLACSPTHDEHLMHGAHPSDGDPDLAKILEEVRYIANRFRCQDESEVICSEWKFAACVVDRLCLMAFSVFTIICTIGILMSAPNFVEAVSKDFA
T1 sequence (Q05941 23-502): as above
T1 sequence (P12390 25-500): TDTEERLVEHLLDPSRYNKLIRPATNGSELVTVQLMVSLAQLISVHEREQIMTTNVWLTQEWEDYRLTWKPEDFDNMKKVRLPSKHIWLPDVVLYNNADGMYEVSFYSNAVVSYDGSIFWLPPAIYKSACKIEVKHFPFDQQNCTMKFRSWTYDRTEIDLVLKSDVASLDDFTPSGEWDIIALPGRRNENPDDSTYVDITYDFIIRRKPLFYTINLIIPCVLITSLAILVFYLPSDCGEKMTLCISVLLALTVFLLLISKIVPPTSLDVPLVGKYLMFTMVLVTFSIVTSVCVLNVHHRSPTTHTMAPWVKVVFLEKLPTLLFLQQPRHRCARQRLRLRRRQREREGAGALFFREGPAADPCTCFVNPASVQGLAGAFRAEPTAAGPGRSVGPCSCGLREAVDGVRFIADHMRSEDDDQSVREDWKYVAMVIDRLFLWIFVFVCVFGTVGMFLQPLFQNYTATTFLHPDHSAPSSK
T4 sequence (P49582 23-502): as the sequence (Q05941 23-502) above, with A402T counted along it
T5 sequence (Q05941 23-502): as the sequence (Q05941 23-502) above
T5 sequence (P12390 25-500): as the sequence (P12390 25-500) above
T3 sequence (P49582 23-502): as the sequence (Q05941 23-502) above, with A402T counted along it
T3 sequence (Q9ERK7 26-501): as the sequence (P12390 25-500) above, with A350T, V371M, R379Q, T383A, P387L, V391M, V449I, P468S counted along it

For `CNCC/C=C/c1cccnc1` [RJR-2403], the “agonist-evoked inward current compared with ACh-induced response” value [1] was “insensitive” and the “agonist-evoked current compared with ACh-induced response” value [2] was “mimicked”.
In the case of “Aβ1-42: amyloid beta peptides at positions 1-42 of the amyloid precursor protein, purchased from rPeptide”, the “effect on choline-induced currents” value [1] is reported as “progressively inhibited with time”, the “effect on choline-induced currents” value ([1]; 0.1 nM peptide, MS/DB neurons) is reported as “negligible” and the “effect on ACh-induced current” value ([1]; 1 nM peptide, 1 mM ACh, MS/DB neurons) is reported as “evident”. The “reversibility of inhibition of choline responses” value ([1]; 1 nM, recovery after 6 min of peptide washout) was “reversibly”, the “effect on choline-induced currents” value ([2]; 1 nM peptide, VTA DAergic neurons) was “not sensitive” and the “effect on choline-induced currents” value [3] was “did suppress”. For the same compound, the “effect on choline-induced currents” value ([4]; 1 nM peptide, MS/DB neurons from β2−/− mice) was “failed to suppress”, the “inhibition of GABA-induced currents” value (GABAA receptors) was “insensitive” and the “inhibition of glutamate-induced currents” value [5] was “insensitive”.
`CO[C@H]1CC=C2CCN3CCC4=C(CC(=O)OC4)[C@]23C1` [DHβE, dihydro-β-erythroidine] was tested, and the “Hill coefficient, inhibition of choline-induced currents” value ([1]; 10 mM choline, MS/DB neurons, n=8) was 0.9, the IC50 ([1]; 10 mM choline, MS/DB neurons, n=8, read-out: IC50, inhibition of choline-induced currents) was 170 nM and the “potency difference as inhibitor of choline-induced current, MS/DB vs VTA neurons” value ([1]; MS/DB neurons compared with VTA neurons) was roughly 500 fold. For the same compound, the “Hill coefficient, inhibition of choline-induced currents” value ([2]; 10 mM choline, VTA neurons) was 0.3, the IC50 ([2]; 10 mM choline, VTA neurons, n=7, read-out: IC50, inhibition of choline-induced currents) was greater than 100000 nM and the “sensitivity to functional blockade, α7β2- vs α7-nAChR” value [6] was “more sensitive”. The “sensitivity of choline-induced currents to antagonist” value ([4]; MS/DB neurons from β2 knockouts compared with wild-type) was “lower sensitivity”.
`C[C@@H]1O[C@H](C[N+](C)(C)C)C[C@H]1O` [muscarine] was tested, and the “effect on spontaneous action potential firing” value (MS/DB neurons) was “insensitive”.
With “fibrillar Aβ: Aβ1-42 stock incubated at 37° C. for 48 h at pH 6.0, predominantly fibrillar form” the “form-dependent suppression of choline-induced responses” value (“form-dependent suppression” below) ([1]; MS/DB neurons) was “weaker inhibitory effect”.
“monomeric Aβ1-42: Aβ1-42 reconstituted in DMSO, predominant monomeric form” was tested, and the “form-dependent suppression” value ([1]; MS/DB neurons) was “failed to suppress”.
With “oligomeric Aβ1-42: Aβ1-42 reconstituted in distilled water, predominantly oligomeric form” the “form-dependent suppression” value ([1]; MS/DB neurons) was “greatest suppression”.
